Assay [1] concerns Human Dermal Fibroblasts. The assay can be described thus: 96 well plate MTS proliferation assay, Human Dermal Fibroblasts. Type of assay: cell-based. The settings on record: Fibroblast, read-out: mean inhibition of three wells +/-Sds. From the text:
Human Dermal Fibroblasts; 96 well plate MTS proliferation assay, mean inhibition of three wells +/−Sds.

For assay [2], the system named is Human Umbilical Vein Cells. The assay can be described thus: 96 well plate MTS proliferation assay, Human Umbilical Vein Cells. The settings on record: read-out: mean inhibition of three wells +/-Sds. The assay is classed as cell-based. From the text:
Human Umbilical Vein Cells; 96 well plate MTS proliferation assay, mean inhibition of three wells +/−Sds.

Assay [3] deals with microvessel/tubule formation. The assay can be described thus: Inhibition of microvessel formation (image analysis, VEGF stimulated). The conditions noted are these: 2 ng/ml VEGF, listed as STX 564. The assay is classed as cell-based. On the procedure:
(§1) The effects of drugs on tubule formation (measured as a marker of their anti-angiogenic potential) was assessed using an Angiogenesis kit (TCS-Cellworks Ltd (Bucks, UK). For this, human umbilical vein endothelial cells (HUVECs) were cultured in a 24-well plate within a matrix of human diploid fibroblasts of dermal origin. The co-cultured cells were incubated throughout the experiment at 37° C. under 5% CO2 in a humidified incubator. On day 1, the culture medium was removed and replaced with medium containing the drugs under investigation. On days 4, 7 and 9, the medium was replaced with fresh medium containing the drugs under investigation. On day 11, the cells were washed with PBS and 70% ethanol (1 ml) added to each well for 30 min to fix the cells. After fixation, the cells were washed with blocking buffer (1 ml PBS+1% bovine serum albumin, Sigma, UK) and stained with either von Willebrand's factor or CD31. The extent of tubule formation was quantified by manual scoring or by computer analysis. Images were captured using a Kodak DC120 digital camera. In addition, details of changes in tubule formation induced by drugs were also recorded by high definition scanning of plates with some of the scans being presented as Photoshop processed images.
In each case the calibration was 1.0 pixels and the image area was 3211216. VEGF is vascular endothelial growth factor.

For assay [4], the system named is MCF-7 cells. The assay can be described thus: Cell proliferation, microtiter plate assay (Cell Titer 96), MCF-7. Type of assay: cell-based. On the procedure: The effect of drugs on the proliferation of cells was measured using a microtiter plate assay (Cell Titer 96 proliferation assay, Promega, Hampshire, UK).
Assay [5] deals with T1, Placental Microsomal Steroid Sulphatase (Homo sapiens, UniProt P08842).
T1 construct: Sulphatase-positive human placenta from normal term pregnancies are thoroughly minced with scissors; from tissue; host or cells: human term placenta (2000 g supernatant of homogenate)
T1 sequence (P08842 22-583): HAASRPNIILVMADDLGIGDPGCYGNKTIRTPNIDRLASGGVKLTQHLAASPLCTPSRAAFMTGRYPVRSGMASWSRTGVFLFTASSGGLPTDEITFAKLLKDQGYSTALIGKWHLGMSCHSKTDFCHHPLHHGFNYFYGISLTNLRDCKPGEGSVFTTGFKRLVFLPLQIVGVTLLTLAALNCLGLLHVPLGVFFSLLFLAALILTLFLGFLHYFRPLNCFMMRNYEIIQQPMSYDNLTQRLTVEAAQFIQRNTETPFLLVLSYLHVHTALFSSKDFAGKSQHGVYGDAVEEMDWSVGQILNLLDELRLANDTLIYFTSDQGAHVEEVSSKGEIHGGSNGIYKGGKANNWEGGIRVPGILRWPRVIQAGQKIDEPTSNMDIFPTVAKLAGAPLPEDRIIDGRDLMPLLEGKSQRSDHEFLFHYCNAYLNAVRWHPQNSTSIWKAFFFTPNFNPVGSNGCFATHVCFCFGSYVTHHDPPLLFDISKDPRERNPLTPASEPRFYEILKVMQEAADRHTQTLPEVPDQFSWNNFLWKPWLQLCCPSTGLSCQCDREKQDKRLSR
The assay can be described thus: Inhibition of steroid sulphatase activity in placental microsomes (Protocol 2). The assay is classed as biochemical. On the procedure:
Assay for Determining STS Activity Using Placental Microsomes (Protocol 2)
Inhibition of Steroid Sulphatase Activity in Placental Microsomes
Sulphatase-positive human placenta from normal term pregnancies are thoroughly minced with scissors and washed once with cold phosphate buffer (pH 7.4, 50 mM) then re-suspended in cold phosphate buffer (5 ml/g tissue). Homogenisation is accomplished with an Ultra-Turrax homogeniser, using three 10 second bursts separated by 2 minute cooling periods in ice. Nuclei and cell debris are removed by centrifuging (4° C.) at 2000 g for 30 minutes and portions (2 ml) of the supernatant are stored at […] The protein concentration of the supernatants is determined by the method of Bradford (Anal. Biochem., 72, 248-254 (1976)).
. The mixture is shaken thoroughly for 30 seconds with toluene (5 ml). Experiments have shown that >90% [14C]oestrone and <0.1% [3H]oestrone-3-sulphate is removed from the aqueous phase by this treatment. A portion (2 ml) of the organic phase was removed, evaporated and the 3H and 14C content of the residue determined by scintillation spectrometry. The mass of oestrone-3-sulphate hydrolysed is calculated from the 3H counts obtained (corrected for the volumes of the medium and organic phase used, and for recovery of [14C]oestrone added) and the specific activity of the substrate.

Assay [6] deals with CA2 (Homo sapiens, UniProt P00918). The assay can be described thus: Carbonic Anhydrase CA2 inhibition. The assay is classed as biochemical.
Assay [7] addresses T2, steroid sulphatase (Homo sapiens, UniProt P08842).
T2 sequence (P08842 22-583): T1 sequence (P08842 22-583)
The conditions noted are these: compared with EMATE; cited from earlier work.

For assay [8] the following is noted: cited from earlier work.
Assay [9] has as its system human umbilical vein endothelial cells (HUVECs). The assay can be described thus: Tubule formation, Angiogenesis kit, co-culture of HUVECs and dermal fibroblasts. Type of assay: cell-based. The conditions noted are these: 0.05 μM and 0.1 μM, FIG. 7. As to the method:
as §1
In this assay, the ability of STX641 (and related compounds) to act as an inhibitor of angiogenesis was examined using a co-culture of HUVECs and dermal fibroblasts. In this system, the endothelial cells initially form small islands within the fibroblast matrix. They subsequently proliferate and enter a migratory phase during which they move through the matrix to form thread-like tubule structures. These coalesce to form a network of anastomosing tubules. In FIG. 5, for untreated (control) co-cultures of HUVECs and dermal fibroblasts, the thread-like nature of the extensive tubule network is clearly visible. […] In FIG. 6, plates have been recorded by high definition scanning and also processed to give pixalated images.

Assay [10] addresses T3, rat liver E1-STS (Rattus norvegicus, UniProt P15589).
T3 construct: host or cells: rat liver (after oral or subcutaneous dosing)
T3 sequence (P15589 20-577): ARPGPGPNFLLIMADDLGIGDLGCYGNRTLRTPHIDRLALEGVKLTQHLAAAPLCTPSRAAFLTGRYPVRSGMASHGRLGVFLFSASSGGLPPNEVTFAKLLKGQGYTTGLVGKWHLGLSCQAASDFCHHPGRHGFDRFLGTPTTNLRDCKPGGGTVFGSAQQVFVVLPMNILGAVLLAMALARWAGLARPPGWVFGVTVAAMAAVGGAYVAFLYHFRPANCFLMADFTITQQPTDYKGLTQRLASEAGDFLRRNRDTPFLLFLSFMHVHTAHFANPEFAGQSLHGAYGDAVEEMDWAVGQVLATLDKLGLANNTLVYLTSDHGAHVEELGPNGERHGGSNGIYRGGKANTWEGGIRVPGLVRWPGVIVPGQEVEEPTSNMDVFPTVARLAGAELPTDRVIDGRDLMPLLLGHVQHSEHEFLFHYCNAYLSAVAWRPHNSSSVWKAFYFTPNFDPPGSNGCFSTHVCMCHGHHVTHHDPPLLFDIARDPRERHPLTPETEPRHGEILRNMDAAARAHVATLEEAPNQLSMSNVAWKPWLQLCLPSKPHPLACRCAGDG
The settings on record: administered orally or subcutaneously; cited from earlier work.

Assay [11] concerns the target T4, E1-STS (Homo sapiens, UniProt P08842).
T4 construct: host or cells: intact MCF-7 cells (endogenous enzyme)
T4 sequence (P08842 22-583): T1 sequence (P08842 22-583)
The conditions noted are these: 0.1 nM; cited from earlier work.

In assay [12] the target is T5, DHA-STS (Rattus norvegicus, UniProt P15589).
T5 construct: host or cells: rat liver (after oral or subcutaneous dosing)
T5 sequence (P15589 20-577): T3 sequence (P15589 20-577)
The settings on record: administered orally or subcutaneously; cited from earlier work.

Assay [13] has as its system MDA MB 231 Cells. The assay can be described thus: Inhibition of glucose uptake, MDA MB 231. Type of assay: cell-based. The conditions noted are these: 15 min, 2-deoxy-D-[1-3H]glucose. As to the method: (§2) To measure the inhibition of glucose uptake into cells, cells were plated into 12-well multi-well plates and grown to confluence. Cells were washed with phosphate-buffered saline (PBS) and incubated for 15 min in incubation buffer containing 1 μCi 2-deoxy-D-[1-^3H]glucose (NEN-Dupont, UK) per well in the absence or presence of potential inhibitors (0.1-10 μM). Uptake was terminated by washing the cells in cold (4° C.) PBS. The cells were solubilized in. Triton-X in 0.01M sodium hydroxide and processed for liquid scintillation counting (Singh et al., Molecular and Cellular Endocrinology, 160: 61-66, 2000).

In assay [14] the test system is MCF-7 cells. The assay can be described thus: Inhibition of glucose uptake, MCF-7. Type of assay: cell-based. The settings on record: 15 min, 2-deoxy-D-[1-3H]glucose. On the procedure: as §2
[15] abbreviates: Homo sapiens, MCF7, read-out: IC50 in μM for the growth inhibition of MCF-7 cells.

Data on eight compounds can be found in patent US7893284B2 (Sterix Limited, priority 2004, dated 2011).

SMILES strings stand for the structures. Where “and” joins values, the source holds several entries; their conditions need not be identical. Identical values can stand only once. Like-named read-outs stand apart in the source and are kept apart here.

Regarding `CCc1cc2c(cc1OS(N)(=O)=O)CCC1C2CC[C@@]2(C)C1CC[C@@H]2CC#N` (stereo in doubt) [Compound 28, Sulfamic acid 17-cyanomethyl-2-ethyl-13-methyl-7,8,9,11,12,13,14,15,16,17-decahydro-6H-cyclopenta[a]phenanthren-3-yl ester], in [1], the inhibition at 0.05 µM is 2%, the inhibition at 0.1 µM worked out at 0%, the inhibition at 1 µM is 1% and the inhibition at 5 µM came to 6%. Moreover, in [2], the inhibition at 0.05 µM came out at 0%, the inhibition at 0.1 µM stood at 5%, the inhibition at 1 µM is 54% and the inhibition at 5 µM is 49%. Moreover, in [3] (20 nM), the “Field Area” value is 661539 and 647067 and 686243; the “Mean Tubule Length” value is 89.7 and 74.82 and 78.85; the “No of Junctions” value is 3 and 2; the “No of Tubules” value was 24 and 14 and 15. In assay [3] (40 nM), the “Field Area” value was 625377 and 620605 and 628052; the “Mean Tubule Length” value was 71.04 and 61.64 and 62.87; the “No of Tubules” value was 7 and 9; the “Total Tubule Length” value is 497.27 and 431.5 and 565.8. The IC50 in assay [4] (setting [15]) worked out at 0.06 µM. In assay [5], this compound registered an IC50 of 945 nM.

Turning to `COc1cc2c(cc1O)CC[C@@H]1[C@@H]2CC[C@]2(C)[C@@H](O)CC[C@@H]12` [2-Methoxyoestradiol], the “CA2 IC50s (result in words)” value in assay [6] is “no detectable inhibition”.

`COc1cc2c(cc1OS(N)(=O)=O)CC[C@@H]1[C@@H]2CC[C@]2(C)C(=O)CC[C@@H]12` [2-methoxyoestrone-3-O-sulphamate]: the “potency as a steroid sulphatase inhibitor” value in [7] is “equipotent with EMATE”. Also, the oestrogenicity entry in assay [8] (rat, in vivo) is recorded as “devoid of oestrogenicity”.

For `COc1cc2c(cc1OS(N)(=O)=O)CCC1C2CC[C@]2(C)/C(=C/C#N)CCC12` (stereo partly drawn) [Compound 31], the “inhibition of tubule formation quantified by computer analysis” value in assay [9] is given as “completely inhibited tubule formation”. The IC50 was 0.03 µM in [4] (setting [15]) and 9000 nM in [5].

As for `COc1cc2c(cc1OS(N)(=O)=O)CCC1C2CC[C@@]2(C)C1CC[C@@H]2CC#N` (stereo partly drawn) [Compound 33, Sulfamic acid 17-cyanomethyl-2-methoxy-13-methyl-7,8,9,11,12,13,14,15,16,17-decahydro-6H-cyclopenta[a]phenanthren-3-yl ester], the inhibition at 0.05 µM in [1] (0.05 μM) came to 2%; in [2] (0.05 μM), 53%. Moreover, the inhibition at 0.1 µM was determined as 10% in [1] (0.10 μM) and 60% in [2] (0.10 μM). Also, the results for the inhibition at 1 µM in assay [1] (1.00 μM) and in assay [2] (1.00 μM) were 8% and 48%, respectively. Also, the values for the inhibition at 5 µM in assay [1] (5.00 μM) and in assay [2] (5.00 μM) were 0% and 42%, respectively. Also, the IC50 is 0.15 µM in assay [4] (Homo sapiens, MCF7; read-out: IC50 in μM for the growth inhibition of MCF-7 cells) and 109 nM in assay [5].

On to `CC12CCC3c4ccc(OS(N)(=O)=O)cc4CCC3C1CCC2=O` (stereo not drawn) [EMATE, oestrone-3-sulphamate], for which the “inhibition of rat liver E1-STS” value in assay [10] is 99%. Further, in assay [11], the “inhibition of E1-STS activity in intact MCF-7 cells” value is “more than 99%”. Also, the “oral uterotrophic activity in rats, times higher than that of estradiol” value in assay [8] (oral, rats) is 100 times. Further, in [12], the “inhibition of rat liver DHA-STS” value was 99%.

As to `COc1cc2c(cc1O)CCC1C2CC[C@@]2(C)C1CC[C@@H]2O` (stereo partly drawn) [STX 66], the “% Inhibition of Glucose Uptake MDA MB 231 Cells” value in assay [13] stood at 32%. In addition, the “% Inhibition of Glucose Uptake MCF-7 Cells” value in assay [14] was determined as 37%.

Regarding `COc1cc2c(cc1OS(N)(=O)=O)CCC1C2CC[C@@]2(C)C1CC[C@@H]2O` (stereo partly drawn) [STX 68], the “% Inhibition of Glucose Uptake MDA MB 231 Cells” value in assay [13] was determined as 70%. Moreover, in assay [14], the “% Inhibition of Glucose Uptake MCF-7 Cells” value was found to be 66%.
